Assay: xn = mol fraction of the nth substance listed
Details: Liquid, Vibrating tube method

CCCCCCCC [octane] + CCCCCC
Details | mass density [kg/m3]
342.99 K, 19000 kPa, x2 = 0.1654 | 676.86
342.99 K, 20000 kPa, x2 = 0.1654 | 677.79
342.99 K, 21000 kPa, x2 = 0.1654 | 678.7
342.99 K, 22000 kPa, x2 = 0.1654 | 679.59
342.99 K, 23000 kPa, x2 = 0.1654 | 680.47
342.99 K, 24000 kPa, x2 = 0.1654 | 681.32
342.99 K, 25000 kPa, x2 = 0.1654 | 682.14
343 K, 1000 kPa, x2 = 0.7995 | 627.89
343 K, 2000 kPa, x2 = 0.7995 | 629.27
343 K, 3000 kPa, x2 = 0.7995 | 630.64
343 K, 4000 kPa, x2 = 0.7995 | 632.01
343 K, 5000 kPa, x2 = 0.7995 | 633.35
343 K, 6000 kPa, x2 = 0.7995 | 634.69
343 K, 7000 kPa, x2 = 0.7995 | 636.02
343 K, 8000 kPa, x2 = 0.7995 | 637.32
343 K, 9000 kPa, x2 = 0.7995 | 638.61
343 K, 10000 kPa, x2 = 0.7995 | 639.87
343 K, 11000 kPa, x2 = 0.7995 | 641.1
343 K, 12000 kPa, x2 = 0.7995 | 642.32
343 K, 13000 kPa, x2 = 0.7995 | 643.52
343 K, 14000 kPa, x2 = 0.7995 | 644.7
343 K, 15000 kPa, x2 = 0.7995 | 645.87
343 K, 16000 kPa, x2 = 0.7995 | 647.01
343 K, 17000 kPa, x2 = 0.7995 | 648.12
343 K, 18000 kPa, x2 = 0.7995 | 649.21
343 K, 19000 kPa, x2 = 0.7995 | 650.28
343 K, 20000 kPa, x2 = 0.7995 | 651.33
343 K, 21000 kPa, x2 = 0.7995 | 652.33
343 K, 22000 kPa, x2 = 0.7995 | 653.33
343 K, 23000 kPa, x2 = 0.7995 | 654.3
343 K, 24000 kPa, x2 = 0.7995 | 655.24
343 K, 25000 kPa, x2 = 0.7995 | 656.16
352.79 K, 1000 kPa, x2 = 0.5749 | 631.4
352.79 K, 2000 kPa, x2 = 0.5749 | 632.83
352.79 K, 3000 kPa, x2 = 0.5749 | 634.2
352.79 K, 4000 kPa, x2 = 0.5749 | 635.57
352.79 K, 5000 kPa, x2 = 0.5749 | 636.95
352.79 K, 6000 kPa, x2 = 0.5749 | 638.3
352.79 K, 7000 kPa, x2 = 0.5749 | 639.63
352.79 K, 8000 kPa, x2 = 0.5749 | 640.97
352.79 K, 9000 kPa, x2 = 0.5749 | 642.26
352.79 K, 10000 kPa, x2 = 0.5749 | 643.53
352.79 K, 11000 kPa, x2 = 0.5749 | 644.82
352.79 K, 12000 kPa, x2 = 0.5749 | 646.04
352.79 K, 13000 kPa, x2 = 0.5749 | 647.27
352.79 K, 14000 kPa, x2 = 0.5749 | 648.46
352.79 K, 15000 kPa, x2 = 0.5749 | 649.66
352.79 K, 16000 kPa, x2 = 0.5749 | 650.79
352.79 K, 17000 kPa, x2 = 0.5749 | 651.95
352.79 K, 18000 kPa, x2 = 0.5749 | 653.02
352.79 K, 19000 kPa, x2 = 0.5749 | 654.11
352.79 K, 20000 kPa, x2 = 0.5749 | 655.18
352.79 K, 21000 kPa, x2 = 0.5749 | 656.24
352.79 K, 22000 kPa, x2 = 0.5749 | 657.22
352.79 K, 23000 kPa, x2 = 0.5749 | 658.23
352.79 K, 24000 kPa, x2 = 0.5749 | 659.22
352.79 K, 25000 kPa, x2 = 0.5749 | 660.15
352.85 K, 1000 kPa, x2 = 0.2199 | 646.75
352.85 K, 2000 kPa, x2 = 0.2199 | 648.04
352.85 K, 3000 kPa, x2 = 0.2199 | 649.32
352.85 K, 4000 kPa, x2 = 0.2199 | 650.6
352.85 K, 5000 kPa, x2 = 0.2199 | 651.87
352.85 K, 6000 kPa, x2 = 0.2199 | 653.11
352.85 K, 7000 kPa, x2 = 0.2199 | 654.35
352.85 K, 8000 kPa, x2 = 0.2199 | 655.57
352.85 K, 9000 kPa, x2 = 0.2199 | 656.79
352.85 K, 10000 kPa, x2 = 0.2199 | 657.97
352.85 K, 11000 kPa, x2 = 0.2199 | 659.16
352.85 K, 12000 kPa, x2 = 0.2199 | 660.32
352.85 K, 13000 kPa, x2 = 0.2199 | 661.45
352.85 K, 14000 kPa, x2 = 0.2199 | 662.57
352.85 K, 15000 kPa, x2 = 0.2199 | 663.67
352.85 K, 16000 kPa, x2 = 0.2199 | 664.74
352.85 K, 17000 kPa, x2 = 0.2199 | 665.8
352.85 K, 18000 kPa, x2 = 0.2199 | 666.83
352.85 K, 19000 kPa, x2 = 0.2199 | 667.85
352.85 K, 20000 kPa, x2 = 0.2199 | 668.84
352.85 K, 21000 kPa, x2 = 0.2199 | 669.8
352.85 K, 22000 kPa, x2 = 0.2199 | 670.75
352.85 K, 23000 kPa, x2 = 0.2199 | 671.68
352.85 K, 24000 kPa, x2 = 0.2199 | 672.59
352.85 K, 25000 kPa, x2 = 0.2199 | 673.48
352.91 K, 1000 kPa, x2 = 0.1654 | 648.87
352.91 K, 1000 kPa, x2 = 0.9308 | 609.77
352.91 K, 2000 kPa, x2 = 0.1654 | 650.15
352.91 K, 2000 kPa, x2 = 0.9308 | 611.36
352.91 K, 3000 kPa, x2 = 0.1654 | 651.43
352.91 K, 3000 kPa, x2 = 0.9308 | 612.95
352.91 K, 4000 kPa, x2 = 0.1654 | 652.68
352.91 K, 4000 kPa, x2 = 0.9308 | 614.51
352.91 K, 5000 kPa, x2 = 0.1654 | 653.95
352.91 K, 5000 kPa, x2 = 0.9308 | 616.06
352.91 K, 6000 kPa, x2 = 0.1654 | 655.19
352.91 K, 6000 kPa, x2 = 0.9308 | 617.57
